Data reported in ChEMBL document CHEMBL3856285, “Recent progress in the identification of adenosine monophosphate-activated protein kinase (AMPK) activators” (Bioorg Med Chem Lett, 2016).

Assays:
[1] = biological target: T1, AMP-activated protein kinase (AMPK) alpha-1/beta-1/gamma-1 (Homo sapiens) (UniProt P54619+Q9Y478+Q13131); assay: Activation of full length human recombinant AMPK alpha1/beta1/gamma1 expressed in baculovirus infected sf21 cells using SAMS peptide substrate after 30 mins in presence of [33P]ATP by TopCount analysis relative to AMP
T1 sequence (P54619 whole entry, one chain of several): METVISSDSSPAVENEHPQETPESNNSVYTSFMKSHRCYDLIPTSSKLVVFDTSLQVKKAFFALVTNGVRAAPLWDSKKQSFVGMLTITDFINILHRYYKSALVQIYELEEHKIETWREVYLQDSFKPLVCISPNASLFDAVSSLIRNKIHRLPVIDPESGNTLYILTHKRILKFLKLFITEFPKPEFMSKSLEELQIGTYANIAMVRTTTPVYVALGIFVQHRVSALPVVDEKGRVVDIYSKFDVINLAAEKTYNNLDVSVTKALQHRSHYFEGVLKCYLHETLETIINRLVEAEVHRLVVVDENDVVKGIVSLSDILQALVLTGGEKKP
T1 sequence (Q13131 whole entry partner, one chain of several): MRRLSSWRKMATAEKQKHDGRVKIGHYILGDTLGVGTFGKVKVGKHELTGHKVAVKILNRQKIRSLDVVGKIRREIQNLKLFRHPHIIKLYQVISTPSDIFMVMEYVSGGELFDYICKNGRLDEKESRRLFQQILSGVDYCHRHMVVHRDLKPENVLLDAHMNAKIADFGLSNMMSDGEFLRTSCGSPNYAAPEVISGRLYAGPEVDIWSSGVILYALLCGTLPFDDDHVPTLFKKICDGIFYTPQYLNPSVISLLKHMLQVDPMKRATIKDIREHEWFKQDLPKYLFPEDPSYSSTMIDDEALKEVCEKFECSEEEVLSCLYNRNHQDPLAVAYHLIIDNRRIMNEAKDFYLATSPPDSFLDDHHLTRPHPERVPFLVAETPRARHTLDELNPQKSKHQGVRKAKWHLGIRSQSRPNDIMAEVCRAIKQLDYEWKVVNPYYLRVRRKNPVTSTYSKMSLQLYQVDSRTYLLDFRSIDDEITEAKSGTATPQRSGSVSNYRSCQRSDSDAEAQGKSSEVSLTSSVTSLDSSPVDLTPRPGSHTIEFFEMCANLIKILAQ

[2] = biological target: T2, AMP-activated protein kinase, AMPK (Homo sapiens) (UniProt P54646+O43741+P54619+Q9UGJ0+Q9Y478+Q13131+Q9UGI9); assay: Activation of human recombinant AMPK assessed as increase in ADP accumulation using SAMS peptide after 30 mins by fluorescence assay
[3] = biological target: AMP-activated protein kinase, AMPK; assay: Activation of recombinant AMPK (unknown origin) after 30 mins in presence of [gamma33P]ATP by scintillation proximity assay; design: species or system Homo sapiens
[4] = biological target: T3, AMP-activated protein kinase (AMPK) alpha-1/beta-1/gamma-1 (Homo sapiens, UniProt P54619+Q13131+Q9Y478); assay: Activation of full length human recombinant AMPK alpha1/beta1/gamma1 expressed in baculovirus infected sf21 cells using SAMS peptide substrate after 30 mins in presence of [33P]ATP by TopCount analysis
T3 sequence (P54619 whole entry, one chain of several): as the sequence (P54619 whole entry, one chain of several) above
T3 sequence (Q13131 whole entry, one chain of several): as the sequence (Q13131 whole entry partner, one chain of several) above

[5] = biological target: AMPK alpha2/beta1/gamma1 (Homo sapiens) (UniProt P54646+P54619+Q9Y478); assay: Activation of full length human recombinant AMPK alpha2/beta1/gamma1 expressed in baculovirus infected sf21 cells using 5'-FAM-SAMS peptide substrate after 45 mins by fluorescence assay relative to AMP
Sequence of AMPK alpha2/beta1/gamma1 (Homo sapiens) (P54619 whole entry partner, one chain of several): as the sequence (P54619 whole entry, one chain of several) above
Sequence of AMPK alpha2/beta1/gamma1 (Homo sapiens) (P54646 whole entry, one chain of several): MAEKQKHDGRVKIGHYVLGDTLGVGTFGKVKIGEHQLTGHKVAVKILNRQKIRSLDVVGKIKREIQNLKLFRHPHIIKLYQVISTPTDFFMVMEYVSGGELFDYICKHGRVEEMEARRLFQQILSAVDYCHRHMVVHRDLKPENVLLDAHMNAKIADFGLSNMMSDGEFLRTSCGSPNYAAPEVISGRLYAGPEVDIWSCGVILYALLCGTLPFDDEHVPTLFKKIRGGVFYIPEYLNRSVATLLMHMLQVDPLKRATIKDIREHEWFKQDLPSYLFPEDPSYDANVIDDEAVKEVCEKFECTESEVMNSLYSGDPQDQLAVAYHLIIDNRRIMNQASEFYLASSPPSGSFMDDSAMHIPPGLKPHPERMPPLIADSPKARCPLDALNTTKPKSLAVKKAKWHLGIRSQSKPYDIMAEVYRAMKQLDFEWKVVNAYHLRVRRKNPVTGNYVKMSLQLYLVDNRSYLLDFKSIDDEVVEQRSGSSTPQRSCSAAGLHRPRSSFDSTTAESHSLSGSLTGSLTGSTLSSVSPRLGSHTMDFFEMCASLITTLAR

[6] = biological target: T3, AMP-activated protein kinase (AMPK) alpha-1/beta-1/gamma-1; assay: Activation of human recombinant AMPK alpha1/beta1/gamma1 expressed in Escherichia coli BL21-CodonPlus (DE3)-RIPL using SAMS peptide after 10 mins in presence of [gamma33P]ATP by scintillation counting
[7] = biological target: T3, AMP-activated protein kinase (AMPK) alpha-1/beta-1/gamma-1; assay: (§1) Activation of full length human phosphorylated His-tagged AMPK alpha1/beta1/gamma1 expressed in Escherichia coli BL21-CodonPlus (DE3)-RIPL using SAMS peptide substrate preincubated for 15 mins followed by PP2A addition for 90 mins followed by substrate addition measured after 60 mins in presence of [33P]ATP by scintillation counting method
[8] = biological target: T1, AMP-activated protein kinase (AMPK) alpha-1/beta-1/gamma-1 (Homo sapiens); assay: as §1, with “method relative to AMP” for “method”
[9] = biological target: T3, AMP-activated protein kinase (AMPK) alpha-1/beta-1/gamma-1; assay: Activation of full length human recombinant AMPK alpha1/beta1/gamma1 expressed in baculovirus infected sf21 cells using 5'-FAM-SAMS peptide substrate after 45 mins by fluorescence assay
[10] = biological target: T1, AMP-activated protein kinase (AMPK) alpha-1/beta-1/gamma-1 (Homo sapiens); assay: Activation of full length human recombinant AMPK alpha1/beta1/gamma1 expressed in baculovirus infected sf21 cells using 5'-FAM-SAMS peptide substrate after 45 mins by fluorescence assay relative to AMP
[11] = biological target: T3, AMP-activated protein kinase (AMPK) alpha-1/beta-1/gamma-1; assay: Activation of full length human His/GST-tagged AMPK alpha1/beta1/gamma1 expressed in baculovirus expression system after 1 hr by Z'Lyte assay
Rattus norvegicus [12] = species: Rattus norvegicus; assay: Activation of rat liver AMPK assessed as increase in biotinylated AMARAA peptide phosphorylation at 200 uM measured after 30 mins by DELFIA assay relative to control
[13] = biological target: T1, AMP-activated protein kinase (AMPK) alpha-1/beta-1/gamma-1 (Homo sapiens); assay: (§2) Activation of human recombinant AMPK GST-tagged alpha1/Myc-tagged beta1/HA-tagged gamma1 expressed in African green monkey COS7 cells assessed as increase in SAMS peptide phosphorylation measured after 10 mins in presence of [gamma33P]ATP by scintillation counting method relative to control; format: cell-based; conditions: COS-7
[14] = biological target: T3, AMP-activated protein kinase (AMPK) alpha-1/beta-1/gamma-1; assay: as §2; format: cell-based, COS-7
[15] = biological target: T4, AMPK alpha2/beta2/gamma1 (Homo sapiens) (UniProt P54646+O43741+P54619); assay: Activation of full length human His6-tagged AMPK alpha2/beta2/gamma1 expressed in Escherichia coli BL21-CodonPlus (DE3)-RIPL using FL-Peptide 7 substrate incubated for 2 hrs by fluorescence assay
T4 sequence (P54619 whole entry, looked up, one chain of several): as the sequence (P54619 whole entry, one chain of several) above
T4 sequence (P54646 whole entry, looked up, one chain of several): as the sequence (P54646 whole entry, one chain of several) above

[16] = biological target: T4, AMPK alpha2/beta2/gamma1 (Homo sapiens); assay: Activation of full length human His6-tagged AMPK alpha2/beta2/gamma1 expressed in Escherichia coli BL21-CodonPlus (DE3)-RIPL using FL-Peptide 7 substrate incubated for 2 hrs by fluorescence assay relative to AMP
[17] = biological target: T1, AMP-activated protein kinase (AMPK) alpha-1/beta-1/gamma-1 (Homo sapiens); assay: Activation of full length human recombinant AMPK alpha1/beta1/gamma1 preincubated for 10 mins followed by FL-Peptide 7 addition measured after 2 hrs by fluorescence assay; format: protein-complex assay
[18] = biological target: T4, AMPK alpha2/beta2/gamma1 (Homo sapiens); assay: Activation of full length human His6-tagged AMPK alpha2/beta2/gamma1 expressed in Escherichia coli BL21-CodonPlus (DE3)-RIPL preincubated for 10 mins followed by FL-Peptide 7 substrate addition measured after 2 hrs by fluorescence assay
[19] = biological target: T4, AMPK alpha2/beta2/gamma1 (Homo sapiens); assay: Activation of full length human His6-tagged AMPK alpha2/beta2/gamma1 expressed in Escherichia coli BL21-CodonPlus (DE3)-RIPL preincubated for 10 mins followed by FL-Peptide 7 substrate addition measured after 2 hrs by fluorescence assay relative to AMP
[20] = biological target: T1, AMP-activated protein kinase (AMPK) alpha-1/beta-1/gamma-1 (Homo sapiens); assay: Activation of full length human recombinant AMPK alpha1/beta1/gamma1 preincubated for 10 mins followed by FL-Peptide 7 addition measured after 2 hrs by fluorescence assay relative to AMP; format: protein-complex assay
Mus musculus = assay: Antidiabetic activity in […] ob/ob mouse model assessed as reduction in blood glucose level at 150 mg/kg, po bid for 8 days relative to control; format: functional; conditions: 192 h
[21] = biological target: T2, AMP-activated protein kinase, AMPK (Homo sapiens); assay: Activation of AMPK (unknown origin) assessed as residual activity at 30 uM using AMARAA peptide after 30 mins by DELFIA assay relative to control
[22] = biological target: T3, AMP-activated protein kinase (AMPK) alpha-1/beta-1/gamma-1; assay: Binding affinity for full length human N-terminal His/BAP-tagged AMPK alpha1/beta1/gamma1 expressed in Escherichia coli BL21-CodonPlus by surface plasmon resonance method
[23] = Activation of rat liver AMPK assessed as increase in 33P-phosphorylation of SAMS peptide
[24] = biological target: T5, 5'-AMP-activated protein kinase subunit beta-2 (Mus musculus) (UniProt Q6PAM0); assay: Activation of AMPK beta2 in mouse C2C12 myotubes assessed as increase in phospho-ACC1 level at 1 uM after 2 hrs by ELISA relative to control
T5 sequence (whole entry): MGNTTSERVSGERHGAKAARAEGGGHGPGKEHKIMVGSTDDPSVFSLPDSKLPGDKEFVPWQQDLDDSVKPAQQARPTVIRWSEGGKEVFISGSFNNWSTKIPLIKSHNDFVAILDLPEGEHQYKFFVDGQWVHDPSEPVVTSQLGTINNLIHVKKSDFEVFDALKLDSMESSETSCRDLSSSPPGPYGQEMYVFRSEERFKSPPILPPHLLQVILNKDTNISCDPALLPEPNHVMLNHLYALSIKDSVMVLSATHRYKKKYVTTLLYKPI

[25] = biological target: T6, 5'-AMP-activated protein kinase catalytic subunit alpha-2/beta-1/gamma-2 (Homo sapiens, UniProt P54646+Q9UGJ0+Q9Y478); assay: (§3) Activation of recombinant human His-tagged AMPK alpha2 (2 to 552 residues)/beta1 (2 to 270 residues)/gamma2 (2 to 569 residues) expressed in baculovirus infected sf21 cells preincubated for 30 mins followed by biotinylated ACC-CREBp peptide substrate addition measured after 45 mins by HTRF assay
Target sequence in this assay (P54646 whole entry, one chain of several, the tested form may be a part): as the sequence (P54646 whole entry, one chain of several) above
Target sequence in this assay (Q9UGJ0 whole entry, one chain of several, the tested form may be a part): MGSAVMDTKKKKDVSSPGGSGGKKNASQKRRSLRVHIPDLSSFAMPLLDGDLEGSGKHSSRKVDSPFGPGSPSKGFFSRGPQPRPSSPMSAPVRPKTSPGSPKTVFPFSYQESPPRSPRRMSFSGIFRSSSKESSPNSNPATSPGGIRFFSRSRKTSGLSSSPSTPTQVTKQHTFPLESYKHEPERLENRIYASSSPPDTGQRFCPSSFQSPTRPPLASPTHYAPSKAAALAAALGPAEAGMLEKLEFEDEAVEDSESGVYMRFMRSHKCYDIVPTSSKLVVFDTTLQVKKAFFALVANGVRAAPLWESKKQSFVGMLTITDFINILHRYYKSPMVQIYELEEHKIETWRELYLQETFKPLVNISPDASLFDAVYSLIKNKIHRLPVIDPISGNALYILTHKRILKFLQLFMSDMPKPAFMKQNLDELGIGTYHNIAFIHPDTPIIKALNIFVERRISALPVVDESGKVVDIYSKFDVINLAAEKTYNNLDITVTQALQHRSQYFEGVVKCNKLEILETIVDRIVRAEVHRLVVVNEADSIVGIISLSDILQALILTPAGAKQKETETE

[26] = biological target: T6, 5'-AMP-activated protein kinase catalytic subunit alpha-2/beta-1/gamma-2; assay: as §3, with “assay relative to AMP” for “assay”
Target sequence in this assay (P54646 whole entry, one chain of several, the tested form may be a part): as the sequence (P54646 whole entry, one chain of several) above
Target sequence in this assay (Q9UGJ0 whole entry partner, one chain of several, the tested form may be a part): as the sequence (Q9UGJ0 whole entry, one chain of several, the tested form may be a part) above

[27] = biological target: T7, 5'-AMP-activated protein kinase subunit beta-1 (Homo sapiens) (UniProt Q9Y478); assay: Activation of AMPK beta1 in human HepG2 cells assessed as increase in phospho-ACC1 level at 1 uM after 2 hrs by ELISA relative to control; format: cell-based
T7 sequence (whole entry): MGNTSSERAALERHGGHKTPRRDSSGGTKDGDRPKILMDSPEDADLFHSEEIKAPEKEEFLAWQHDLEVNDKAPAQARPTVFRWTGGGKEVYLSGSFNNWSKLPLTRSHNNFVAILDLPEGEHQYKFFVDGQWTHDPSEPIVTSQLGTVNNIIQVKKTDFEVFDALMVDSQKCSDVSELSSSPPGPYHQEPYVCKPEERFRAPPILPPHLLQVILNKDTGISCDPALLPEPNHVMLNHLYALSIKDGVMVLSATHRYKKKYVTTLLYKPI

Rattus norvegicus [28] = species: Rattus norvegicus
Description: Allosteric activation of rat liver AMPK in presence of ATP relative to control

[29] = biological target: AMPK alpha1/beta1/gamma2 (Homo sapiens) (UniProt Q9UGJ0+Q9Y478+Q13131); assay: Activation of human recombinant AMPK alpha1/beta1/gamma2 expressed in Escherichia coli assessed as residual activity at 30 uM using AMARAA peptide relative to control
Sequence of AMPK alpha1/beta1/gamma2 (Homo sapiens) (Q13131 whole entry partner, one chain of several, the tested form may be a part): as the sequence (Q13131 whole entry partner, one chain of several) above
Sequence of AMPK alpha1/beta1/gamma2 (Homo sapiens) (Q9UGJ0 whole entry, one chain of several, the tested form may be a part): as the sequence (Q9UGJ0 whole entry, one chain of several, the tested form may be a part) above

[30] = biological target: T8, 5'-AMP-activated protein kinase subunit beta-1 (Homo sapiens, UniProt Q9Y478); assay: Activation of human recombinant AMPK beta1 expressed in African green monkey COS7 cells or baculovirus infected insect cells assessed as increase in biotinylated […] (1 to 120 residues) peptide phosphorylation at Ser-79 residue measured after 60 mins by Alphascreen assay; design: species or system COS-7
T8 sequence (Q9Y478 whole entry): T7 sequence (whole entry)

[31] = biological target: T9, 5'-AMP-activated protein kinase subunit beta-2 (Homo sapiens, UniProt O43741); assay: Activation of human recombinant AMPK beta2 expressed in African green monkey COS7 cells or baculovirus infected insect cells assessed as increase in biotinylated […] (1 to 120 residues) peptide phosphorylation at Ser-79 residue measured after 60 mins by Alphascreen assay; design: species or system COS-7
T9 sequence (O43741 whole entry): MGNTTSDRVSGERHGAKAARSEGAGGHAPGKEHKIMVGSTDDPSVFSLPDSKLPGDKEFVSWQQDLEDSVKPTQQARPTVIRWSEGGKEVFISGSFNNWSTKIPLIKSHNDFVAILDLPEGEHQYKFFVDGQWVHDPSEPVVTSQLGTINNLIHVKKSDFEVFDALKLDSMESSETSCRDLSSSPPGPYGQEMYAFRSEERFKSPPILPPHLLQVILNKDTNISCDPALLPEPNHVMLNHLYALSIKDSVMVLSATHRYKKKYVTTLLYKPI

Cc1ccc(Oc2nc3cc(-c4ccc5c(ccn5C)c4)c(Cl)cc3[nH]2)cc1C(=O)O
%max [1]: 241%

CC1(C)CC(c2ccccc2NS(=O)(=O)c2cccc(F)c2)Nc2ccc(C(F)(F)F)cc21 (stereo unspecified)
EC30 [2]: 1140 nM

O=C(O)c1ccc2c(c1)C1(CC1)CC(c1cc(Cl)ccc1F)N2 (stereo unspecified)
EC50 [3]: 1240 nM

Cc1ccc(Oc2nc3cc(-c4ccc(N5CCOCC5)cc4)c(Cl)cc3[nH]2)cc1P(=O)(O)O
EC50 [4]: 1.2 nM | %max [1]: 224%

N#Cc1ccc(-c2ccc(-c3nc4nc(O[C@@H]5CO[C@H]6[C@@H]5OC[C@H]6O)[nH]c4cc3Cl)cc2)c(F)c1
%max [5]: 304%

Cc1cc(-c2ccc(/C=C3\S/C(=N\c4ccc(Cl)c(C(=O)O)c4)NC3=O)o2)c([N+](=O)[O-])cc1C
EC50 [6]: 300 nM

O=C(O)c1n[nH]c2cc(Cl)c(-c3ccc(C4(O)CCC4)cc3)cc12
EC50 [7]: 8.3 nM | %max [8]: 80%

Cc1ccc(Oc2nc3nc(-c4ccc(N5CCCC5)cc4)c(Cl)cc3[nH]2)cc1C(=O)O
EC50 [9]: 1 nM | %max [10]: 681%

CC1(C)Cc2cc(C(=O)O)ccc2NC1c1cccc(N2C(=O)OCC2(C)C)c1 (stereo unspecified)
EC30 [2]: 1150 nM

Cc1cc(-c2c(O)c3cc(-c4ccc(N(C)C)cc4)c(Cl)cc3[nH]c2=O)on1
EC50 [11]: 39.8 nM

COc1ccc(NC(=O)Nc2ccc(Cn3cnc(O)c3C(N)=O)cc2)cc1
Activity (Rattus norvegicus [12]): 229%

C(=N\c1cnc2ccccc2c1)/c1ccc2ccccc2n1
fold change (FC) [13]: 2.7 | EC50 [14]: 1800 nM

O[C@@H]1CO[C@H]2[C@@H]1OC[C@H]2Oc1cc2nc(-c3c(F)cc(N4CCOCC4)cc3F)c(F)cc2[nH]1
EC150 [15]: 8.8 nM | Emax [16]: 729%

CC(C)(C(=O)O)[C@H]1CC[C@H](Oc2nc3nc(-c4ccc(C5(CO)CC5)cc4)c(Cl)cc3[nH]2)CC1
EC150 [17]: 5.6 nM | EC150 [18]: 5 nM | %max [19]: 237% | %max [20]: 257%

O=c1[nH]c2sc(Cl)c(-c3ccc4c(c3O)CCCC4)c2c(O)c1-c1ccccc1
inhibition in vivo at 150 mg/kg (Mus musculus): 41% | Activity [21]: > 130%

N#Cc1c(O)c2c(-c3ccc(-c4ccccc4O)cc3)c(Cl)sc2[nH]c1=O
Kd [22]: 74 nM

N#Cc1c(O)c2c(-c3ccc(-c4ccccc4O)cc3)csc2[nH]c1=O
EC50 [23]: 800 nM

COc1cc(C(O)=C2C(=O)Nc3cc(Cl)c(-c4ccc5c(ccn5C)c4)cc32)on1
Activity [24]: 114% | EC50 [25]: 0.7 nM | Emax [26]: 256% | Activity [27]: 132%

Cc1ccc(Oc2nc3nc(-c4ccc(-c5ccccc5O)cc4)c(Cl)cc3[nH]2)cc1C(=O)O
EC150 [17]: 0.42 nM | EC150 [18]: 4.3 nM | %max [19]: 292% | %max [20]: 355%

CC(C)(O)c1ccc(-c2cc3nc(O[C@H]4CO[C@H](CO)[C@@H](O)C4)[nH]c3cc2Cl)cc1
EC50 [9]: 4 nM | %max [10]: 379%

O=C(O)c1ccccc1O
A0.5 (Rattus norvegicus [28]): 1 mM

Nc1nc(-c2ccc(-n3c(Cl)cc4[nH]c(=O)n(-c5cccc(C(=O)O)c5)c(=O)c43)cc2)cs1
EC50 [11]: 631 nM

Cc1ccc(-c2c(O)c3c(-c4ccc5ccccc5c4O)c(Cl)sc3[nH]c2=O)cc1
Activity [29]: > 90%

O=C(O)c1c[nH]c2ccc(-c3ccc(-c4c(O)cccc4O)cc3)cc12
EC50 [30]: < 500 nM | EC50 [31]: < 5000 nM
